Consider three compounds from patent US6491948B1, “Composition comprising isoquercetin and ascorbic acid in a sustained release form” (Merck Patent GmbH, priority 1999, dated 2002).

The conditions of data set [1]: in vivo; cited from earlier work.
For data set [2] the following is noted: in vivo; cited from earlier work. The source holds these as a separate data set.
A short description of data set [3]: passage of the blood-brain barrier / entry into the brain. Type of data set: in vivo. The following applies: isoquercetin given one hour before ascorbate. The text has this: The second form of ascorbic acid, semidehydroascorbic acid (ascorbate free radical) participates in univalent redox systems that is in the antioxidant defense activity. See Bors, W. et al. (1995), Interaction of Flavonoids with Ascorbate and Determination of their Univalent Redox Potentials: a Pulse Radiolysis Study, Free Radical Biology and Medicine, vol. 19, No. 1, 45-52. This means semidehydroascorbic acid participates most likely in free radical scavenging activities. According to the article Gordon, M. H. (1996), Dietary Antioxidants in Disease Prevention, Natural Product Reports, pp. 265-273, “ascorbate appears to be the most important non-protein antioxidant in plasma” p. 270. […] See Agus, D. B. et al. (1997), Vitamin C crosses the blood-brain barrier in the oxidized form through the glucose transporters, J. Clin. Invest., 100 (11) 2842-2848. After entering the brain dehydroascorbic acid is reduced and retained as ascorbic acid.

Data set [4] is described as follows: pharmacokinetic studies: absorption and bioavailability. Set-up: species or system man. The following applies: in vivo. From the text: Absorbed isoquercetin interacts with ascorbate keeping it in the reduced state and, at the same time, is being protected by ascorbate by being kept in the oxidized state (Yamasaki, H. et al. (1997), Flavanoid-peroxidase reaction as a detoxification mechanism of plant cells against H2O2).

The conditions of data set [5]: man; cited from earlier work.

Take `O=C1O[C@H]([C@@H](O)CO)C(O)=C1O` [Ascorbic acid, ascorbic acid]: the “crossing of the blood-brain barrier” value in data set [1] is “not able to cross blood-brain barrier”. In addition, in data set [2], the “concentration in brain relative to blood serum” value was 10 times.
On to `O=c1c(O[C@@H]2O[C@H](CO)[C@@H](O)[C@H](O)[C@H]2O)c(-c2ccc(O)c(O)c2)oc2cc(O)cc(O)c12` [isoquercetin, quercetin-3-O-glucoside], for which the “entry into the brain and reduction of dehydroascorbate” value in data set [3] was “enters the brain and reduces dehydroascorbate”. Moreover, the “absorption rate and bioavailability” value in data set [4] is “excellent absorption rate and bioavailability”. Also, the “absorption compared with rutin and quercetin” value in data set [5] is “absorbed better than rutin and quercetin”.
For the compound `O=C1O[C@H]([C@@H](O)CO)C(=O)C1=O` [dehydroascorbic acid], the “crossing of the blood-brain barrier” value in data set [1] is “readily enters the brain”.
